Assay results as given in US9731013B2 (UNIVERSITY OF FLORIDA RESEARCH FOUNDATION, INC., priority 2008, dated 2017).

Tests used:
[1] = Radiofrequency (RF) heating of samples dissolved or suspended in water; type: physicochemical; settings: RF 13.56 MHz, 500 W, 250 μL sample in water; for temperature rise (in words): up to five minutes
Method: FIG. 1 is a plot of the temperature rise of samples comprising functionalized fullerenes according to embodiments of the invention that are dissolved or suspended in water during irradiation with RF at 13.56 MHz and 500 W RF power over a period of five minutes.
FIG. 2 is a bar graph of the temperature rise of samples comprising functionalized fullerenes according to embodiments of the invention that are dissolved or suspended in water after irradiation with RF at 13.56 MHz and 500 W RF power for 30 seconds (left bars) and 60 seconds (right bars).
Heating of a volume of water by irradiation of fullerene comprising compounds was carried out using a radiofrequency (RF) heating system (Therm Med, LLC, Erie, Pa.) operating at 13.56 MHz and 500 W RF power. A volume of 250 μL of sample dissolved or suspended in water was pipetted into a cylindrical quartz cuvette for RF exposure. The cuvette was placed on a thin horizontal Teflon sample holder positioned at a depth of 7.6 cm from RF generator.

[2] = Water solubility observation of samples; type: physicochemical

| Substance | temperature rise in 5 minutes ([1]; 5 minutes) [°C] | water solubility (in words) [2] | temperature rise (in words) [1] |
| --- | --- | --- | --- |
| Gadofullerenes (Gd@C82) [GdF] | 10 | not water soluble |  |
| Polyhydroxy fullerenes [PBU] |  |  | Temperature rise was observed |
| Pristine C60 [FN, reference compound] |  | not water soluble | did not show a temperature rise |
